This is an account of results in patent publication US11617777B2, “Cytotoxic and anti-mitotic compounds, and methods of using the same” (ZYMEWORKS BC INC., priority 2013, dated 2023).

One may read the EC50 as the concentration needed to bring the measured effect to its halfway point.

Structures are written as SMILES.

Test [1] has as its system Jurkat cells. In words: Cytotoxicity of compounds, CellTiter-Glo. In kind it is cell-based, Human. Particulars: Homo sapiens, Jurkat. The procedure, abridged: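 HCC1954 plated at 2500 cells/100 uL and attached overnight; Jurkat plated at 2500 cells/100 uL on the day of dosing. Cells exposed to 8-step 1:3 compound titrations for three nights at 37° C./5% CO2, in triplicate. CellTiter-Glo luminescence converted to % cytotoxicity versus medium-only control; EC50 by three-parameter nonlinear regression.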
Background: In ATP-based viability assays light output follows the ATP content of the culture.

The next test concerns NCI-N87. Kind of test: Cytotoxicity of compounds, CellTiter-Glo. In kind it is cell-based. Particulars: Homo sapiens, Table 5, read-out: Cytotoxicity (EC50) NCI-N87. From the text: (§1) FIG. 1 summarizes the data for compounds A, B, C, D, and E when tested using the Human mammary carcinoma cell line HCC1954 or Human T-cell leukemia cell line Jurkat. FIGS. 2-6 show the cytotoxicity data plots for individual compounds A-E. Tables 2-6 summarize the results of additional cytotoxicity assays.
(§2) Cell lines used: Human T-cell leukemia cell line Jurkat (ATCC: TIB-152); HCC1954 (ATCC: CRL. 2338); Human Pancreatic cells lines: AsPC-1 (ATCC: CRL-1682), BxPC-3 (ATCC: CRL.1687), HPAF-II (ATCC: CRL.1997), MiaPaCa2 (ATCC: CRL.1420), PANC-1 (ATCC: CRL.1469), Capan-1 (ATCC: HTB-79), Capan-2 (ATCC: HTB-80) and the Human gastric carcinoma cell line NCI-N87 (ATCC: CRL. 5822); AML-193 (ATCC: CRL.9589), CCRF-CEM (ATCC: CCL-119), DU145 (ATCC: HTB-81), PC-3 (ATCC: CRL.1435), A-431 (ATCC: CRL.1555), HT-29 (ATCC: HTB-38), A-172 (ATCC: CRL.1620), NCI-H358 (ATCC: CRL.5807), A549 (ATCC: CCL-185), Colo-205 (ATCC: CCL-222), MDA-MB-231 (ATCC: HTB-26), OVCAR-3 (ATCC: HTB-161), OV-90 (ATCC: CRL.11732), OE19 (Sigma: 96071721), RT 112/84 (Sigma: 85061106).
(§3) On the day prior to adding compounds, HCC1954 AsPC-1, BxPC-3, HPAF-II, MiaPaCa2, PANC-1, Capan-1, Capan-2 and NCI-N87 cells were added to opaque-walled 96-well tissue culture-treated microtiter plates using complete growth medium at a density of 2500 cells/100 microlitre (uL) of medium. These adherant cell lines cells were incubated for one night at 37° C./5% CO2 to allow the cells to attach to the microtiter plate surface. On the day that compounds were added, Jurkat cells are added to separate 96-well microtiter plates at 2500 cells/100 uL using the same growth medium as HCC1954. Compound were first serially diluted using dimethyl sulfoxide, and then the prepared dilutions are added to complete growth medium at five-times the final concentration—compounds were then titrated 1:3, eight steps. A control with no compound (growth medium alone) was included on each microtiter plate in sextuplicate. The prepared compounds titrations were added (twenty-five uL/well) in triplicate. The cells and compound titrations were incubated at 37° C./5% CO2 for three nights. After the incubation, cell viability is measured using CellTiter-Glo® reagent by adding thirty uL of prepared CellTiter-Glo® to each assay well. The assay is incubated for at least twenty minutes in the dark prior to measuring emitted luminescence using a microplate luminometer (500 ms integration time). The collected relative luminescence units (RLU) are converted to % cytotoxicity using the Growth medium alone control mentioned above (% Cytotoxicity=1−[Well RLU/average medium alone control RLU]).
(§4) GraphPad Prism was used for generation of EC50 values using three parameter non-linear regression curve fitting.

The next test relates to BxPC-3. In words: Cytotoxicity of compounds, CellTiter-Glo. The class given is cell-based. Particulars: Homo sapiens, Table 5, read-out: Cytotoxicity (EC50) BxPC-3.
Source text: as §1, §2, §3, §4

Another test has as its system PANC-1. Kind of test: Cytotoxicity of compounds, CellTiter-Glo. In kind it is cell-based. Particulars: Homo sapiens, Table 5, read-out: Cytotoxicity (EC50) PANC-1.
Source text: as §1, §2, §3, §4

For the next test, the system named is AsPC-1. Kind of test: Cytotoxicity of compounds, CellTiter-Glo. Particulars: Homo sapiens, ASPC1, Table 5, read-out: Cytotoxicity (EC50) AsPC-1. The class given is cell-based.
Source text: as §1, §2, §3, §4

Another test concerns MiaPaCa2. In words: Cytotoxicity of compounds, CellTiter-Glo. The class given is cell-based. Particulars: Homo sapiens, MIA PaCa-2; Table 5; MinPaCa2; read-out: Cytotoxicity (EC50) MinPaCa2.
Source text: as §1, §2, §3, §4

The test system of another test is HPAF-II. Kind of test: Cytotoxicity of compounds, CellTiter-Glo. In kind it is cell-based. Particulars: Homo sapiens, Table 5, read-out: Cytotoxicity (EC50) HPAF-II.
Source text: as §1, §2, §3, §4

Test [2] concerns Jurkat cells. In words: Cytotoxicity assay of SMCC- and LC-SPDP-linked ADCs and free compounds. The class given is cell-based. Particulars: Homo sapiens. As for the experimental part:
(§5) The purified ADCs were then analysed for: total protein content (BCA assay, Pierce microBCA protocol), relative affinity for antigen binding (equilibrium native binding), and selective cytotoxic killing of HER2-positive cells (HCC1954) compared HER2-negative cells (Jurkat).
(§6) On the day prior to adding test articles, HCC1954 cells were added to opaque-walled 96-well tissue culture-treated microtiter plates using complete growth medium at a density of 2500 cells/100 microlitre (uL) of medium. The HCC1954 cells were incubated for one night at 37° C./5% CO2 to allow the cells to attach to the microtiter plate surface. On the day that test articles were added, Jurkat cells are added to separate 96-well microtiter plates at 2500 cells/100 uL using the same growth medium as HCC1954. To compare the ADC killing to that obtained from the free-compounds, the n-acyl sulfonamide compounds were first serially diluted using dimethyl sulfoxide or DMA, and then the prepared dilutions are added to complete growth medium at five-times the final concentration—compounds were then titrated 1:3, eight steps. To test the ADCs, they were diluted directly in growth medium at five-times the final concentration—ADCs were then titrated 1:3, eight steps. A control with no test article present (growth medium alone) was included on each microtiter plate in sextuplicate. The prepared compound/ADC titrations were added (twenty-five uL/well) in triplicate to both the HCC1954 cells and Jurkat cells. The cells and titrations were incubated at 37° C./5% CO2 for three nights. After the incubation, cell viability was measured using CellTiter-Glo® reagent by adding thirty uL of prepared CellTiter-Glo® to each assay well. The assay was incubated for at least twenty minutes in the dark prior to measuring emitted luminescence using a microplate luminometer (500 ms integration time). The collected relative luminescence units (RLU) were converted to % cytotoxicity using the Growth medium alone control mentioned above (% Cytotoxicity=1−[Well RLU/average medium alone control RLU]).

The subject of test [3] is HCC1954 cells. The description is as above. The class given is cell-based. Particulars: Homo sapiens. As to the method:
as §5, §6

Test [4] concerns HCC1954 cells. In words: Cytotoxicity of compounds, CellTiter-Glo. Particulars: Homo sapiens. The class given is cell-based.
Source text: as §2, §3, §4

Where [5] appears, read: Table 3, Cytotoxicity of Compounds on Jurkat Cells, read-out: EC50.
Where [6] appears, read: Table 1, Jurkat cells (HER2−), three nights, read-out: Jurkat cells (HER2−) EC50.
Where [7] appears, read: Table 9, Coupling #1, read-out: Jurkat Best-fit EC50.
Where [8] appears, read: Table 10, Coupling #2, read-out: Jurkat Best-fit EC50.
[9] abbreviates: HCC1954, Table 9, Coupling #1, read-out: HCC1954 Best-fit EC50.
The mark [10] stands for this setting: HCC1954, Table 4, Cytotoxicity of Compounds on HCC-1954 Cells, read-out: EC50.
[11] abbreviates: Table 2, HCC1954, read-out: HCC1954 EC50.
The mark [12] stands for this setting: HCC1954, Table 10, Coupling #2, read-out: HCC1954 Best-fit EC50.
The mark [13] stands for this setting: Table 1, HCC1954 cells (HER2+), three nights, read-out: HCC1954 cells (HER2+) EC50.

As to `CN[C@H](C(=O)N[C@H](C(=O)N(C)[C@H](/C=C(\C)C(=O)NS(=O)(=O)c1ccc(NC(=O)C(F)(F)F)cc1)C(C)C)C(C)(C)C)C(C)(C)c1ccccc1` [Compound 23, (S,E)-2,5-dimethyl-N-(4-(2,2,2-trifluoroacetamido)phenylsulfonyl)-4-((S)—N,3,3-trimethyl-2-((S)-3-methyl-2-(methylamino)-3-phenylbutanamido)butanamido)hex-2-enamide], the EC50 was found to be 0.031 nM with Jurkat cells [1] (setting [5]) and 0.402 nM with NCI-N87.
As to `CN[C@H](C(=O)N[C@H](C(=O)N(C)[C@H](/C=C(\C)C(=O)NS(=O)(=O)c1ccc(N)cc1)C(C)C)C(C)(C)C)C(C)(C)c1ccccc1` [Compound 24, (S,E)-N-(4-aminophenylsulfonyl)-2,5-dimethyl-4-((S)—N,3,3-trimethyl-2-((S)-3-methyl-2-(methylamino)-3-phenylbutanamido)butanamido)hex-2-enamide], the concentration giving a half-maximal response (EC50) was found to be 0.07 nM in the test with Jurkat cells [1] (setting [5]); 0.27 nM in the test on BxPC-3; 2.18 nM in the test on PANC-1; 0.586 nM in the test with AsPC-1; 0.566 nM with MiaPaCa2; 0.396 nM in the test with HPAF-II.
As to `CN[C@H](C(=O)N[C@H](C(=O)N(C)[C@H](/C=C(\C)C(=O)NS(=O)(=O)Cc1ccc(CN)cc1)C(C)C)C(C)(C)C)C(C)(C)c1ccccc1` [Compound 77, (S,E)-N-(4-(aminomethyl)benzylsulfonyl)-2,5-dimethyl-4-((S)—N,3,3-trimethyl-2-((S)-3-methyl-2-(methylamino)-3-phenylbutanamido)butanamido)hex-2-enamide], the EC50 in the test with BxPC-3 was 36.5 nM; in the test with PANC-1, 97.2 nM; in the test with AsPC-1, 15.5 nM; in the test on MiaPaCa2, 94.3 nM; in the test on HPAF-II, 17.2 nM.
Consider `CN[C@H](C(=O)N[C@H](C(=O)N(C)[C@H](/C=C(\C)C(=O)NS(=O)(=O)CCCS)C(C)C)C(C)(C)C)C(C)(C)c1ccccc1` [Compound A, (S,E)-N-(3-mercaptopropylsulfonyl)-2,5-dimethyl-4-((S)—N,3,3-trimethyl-2-((S)-3-methyl-2-(methylamino)-3-phenylbutanamido)butanamido)hex-2-enamide], for which the EC50 turned out to be 0.78 nM with Jurkat cells [1] (setting [6]); 5 nM in the test with Jurkat cells [1] (Table 2, read-out: Jurkat EC50); 4.5 nM in the test with Jurkat cells [1] (setting [5]); 1.1 nM in the test with Jurkat cells [2] (setting [7]); 0.78 nM with Jurkat cells [2] (setting [8]); 2.1 nM in the test with HCC1954 cells [3] (setting [9]). Further, the EC50 with HCC1954 cells [4] (setting [10]) is 2.1 nM; in the test with HCC1954 cells [4] (setting [11]), 3 nM.
`CN[C@H](C(=O)N[C@H](C(=O)N(C)[C@H](/C=C(\C)C(=O)NS(=O)(=O)CCS)C(C)C)C(C)(C)C)C(C)(C)c1ccccc1` [Compound B, (S,E)-N-(2-mercaptoethylsulfonyl)-2,5-dimethyl-4-((S)—N,3,3-trimethyl-2-((S)-3-methyl-2-(methylamino)-3-phenylbutanamido)butanamido)hex-2-enamide]: the EC50 in the test with Jurkat cells [1] (setting [6]) is 10.5 nM; with Jurkat cells [1] (Table 2, read-out: Jurkat EC50), 59 nM; with Jurkat cells [1] (setting [5]), 59 nM; with Jurkat cells [2] (setting [7]) it was 10 nM; in the test with Jurkat cells [2] (setting [8]) it was 36 nM; in the test on HCC1954 cells [3] (setting [9]), 8.1 nM. The EC50 with HCC1954 cells [3] (setting [12]) worked out at 9.2 nM; in the test with HCC1954 cells [4] (setting [10]), 13 nM; in the test with HCC1954 cells [4] (setting [13]) it was 8.1 nM; in the test on HCC1954 cells [4] (setting [11]), 13 nM.
As to `CN[C@H](C(=O)N[C@H](C(=O)N(C)[C@H](/C=C(\C)C(=O)NS(=O)(=O)c1ccc(CS)cc1)C(C)C)C(C)(C)C)C(C)(C)c1ccccc1` [Compound C, (S,E)-N-(4-(mercaptomethyl)phenylsulfonyl)-2,5-dimethyl-4-((S)—N,3,3-trimethyl-2-((S)-3-methyl-2-(methylamino)-3-phenylbutanamido)butanamido)hex-2-enamide], the EC50 with Jurkat cells [1] (setting [6]) was 0.57 nM; in the test with Jurkat cells [1] (Table 2, read-out: Jurkat EC50), 1.9 nM; in the test on Jurkat cells [1] (setting [5]), 1.9 nM; in the test on Jurkat cells [2] (setting [8]), 0.57 nM; in the test on HCC1954 cells [3] (setting [12]), 0.67 nM; in the test with HCC1954 cells [4] (setting [10]) it was 1.3 nM. The EC50 with HCC1954 cells [4] (setting [13]) was determined as 0.67 nM; with HCC1954 cells [4] (setting [11]), 1.3 nM.
Consider `CN[C@H](C(=O)N[C@H](C(=O)N(C)[C@H](/C=C(\C)C(=O)NS(=O)(=O)c1ccc(C)cc1)C(C)C)C(C)(C)C)C(C)(C)c1ccccc1` [Compound D, (S,E)-2,5-dimethyl-N-tosyl-4-((S)—N,3,3-trimethyl-2-((S)-3-methyl-2-(methylamino)-3-phenylbutanamido)butanamido)hex-2-enamide], for which the EC50 is 0.043 nM in the test on Jurkat cells [1] (setting [6]); 0.04 nM with Jurkat cells [1] (Table 2, read-out: Jurkat EC50); 0.033 nM with Jurkat cells [1] (setting [5]); 0.0664 nM with BxPC-3; 0.806 nM in the test on PANC-1; 0.17 nM with AsPC-1. In addition, the EC50 in the test with MiaPaCa2 turned out to be 0.136 nM; in the test on NCI-N87, 0.272 nM; with HPAF-II, 0.177 nM; with HCC1954 cells [4] (setting [10]), 0.06 nM; in the test with HCC1954 cells [4] (setting [11]), 0.06 nM.
